Data: patent US12467068B2, “Process for the production and recovery of bio-surfactant from Bacillus sp. MCC0156” (COUNCIL OF SCIENTIFIC & INDUSTRIAL RESEARCH, priority 2019, dated 2025)
One block for each compound: values may come before it.

Assays:
Artemia salina = experiment: Toxicity on microcrustacean Artemia salina (mortality after 24 h); assay type: in vivo; settings: 24 h at 28 °C, artificial sea water
Protocol: The toxicity of bio-surfactants on microcrustacean Artemia salina was performed in artificial sea water with 30 g/L (w/v) NaCl. Different concentrations like, 10 μg/ml, 100 μg/ml and 1000 μg/ml of crude bio-surfactant and purified compound-1 was supplemented in artificial sea salt solution (pH 8.0) and inoculated with 20 numbers of micro-crustacean A. salina in 10 ml per tube of solution and incubated for 24 h at 28° C. under artificial light condition.
The toxicity of bio-surfactants was determined by calculating the mortality rate against the control (in triplicate) after 24 h incubation. The effect of biosurfactants on the microorganisms was studied in minimal salt medium (MSM) to determine the utilization or degradation pattern of bio-surfactant in presence of Pseudomonas aeruginosa NCIM 2037, Arthrobacter sp NCIM 5452 and Rhodococcus sp NCIM 5488. The minimal salt medium was supplemented with 100 ppm of crude biosurfactant and inoculated with all three strains and incubated at 30° C., 150 rpm for 72 h. Effect of biosurfactants on growth of test strains were determined through measuring the optical density at 620 nm after incubation of 72 h.

[1] = Surfactant properties of purified compounds (oil dispersion, surface tension, emulsification); assay type: physicochemical; settings: purified compound
Protocol: The purified compounds from the crude biosurfactants were analyzed for oil dispersion (OD), surface tension and emulsification activities using the standard protocols as mentioned in methodology. […] The low CMC value 0.3 mg/ml for crude biosurfactant results from mixture of compounds in compare to purified single compound.

[2] = design: Surface tension reduced to: unit not given here; settings: cited from earlier work

Compound: C=CCCCCCCCCCCCCCCCCCCCCCCCCCCCCCCCCCCCCCCCCCCCCCCCCCCCCCCCCCCCCCCCCCCCCCCCCCCCCCCCCCCCCCCCCCCCCC [compound-1, 1-Pentanonacontene]
Mortality (Artemia salina; 10 μg/ml): 59%
Mortality (Artemia salina; 100 μg/ml): 61%
Mortality (Artemia salina; 1000 ug/ml): 68%
E24 for n-hexane [1]: 40%
Oil dispersion efficiency [1]: 93.75%
Surface tension of distilled water decreased to ([1]; distilled water 71.41±0.069 mN/m): 28.53±0.02 mN/m

Surface properties (oil dispersion, surface tension, emulsification activity) [1]: not active
Compound: CC(C)CCCCCCCCCCCCC(O)CC(=O)O (stereo not drawn) [compound-2, 3-Hydroxy-16-methylheptadecanoic acid]

Compound: Aneurinifactin
Surface tension reduced to ([2]; reported biosurfactant): 26
CMC value ([2]; reported biosurfactants): 0.026 mg/mL
